# Measurements taken from paper PMC9596378, “Discovery and molecular basis of subtype-selective cyclophilin inhibitors” (Nature Chemical Biology, 2022).
# Several values for one entry are separate records, joined by “and”; a condition that tells them apart may be missing. Equal values may be shown once. Read-outs that look alike come from different tables or passages of the source.
# How the values were obtained:
# Experiment in all cases: Chymotrypsin coupled prolyl-isomerase assay
# Assay type in all cases: biochemical
# CypE = biological target: T1, CypE (Homo sapiens, UniProt Q9UNP9); settings: for CypE prolyl-isomerase assay raw dose-response value: Fig. 3b source data, replicates
# T1 construct: PPIE (UniProtKB Entry Q9UNP9: residues 131–301); host or cells: E. coli BL21(DE3)
# In short: (§1)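 5 nM Cyp, HEPES pH 7.3/NaCl/Triton buffer, 2–3 °C; cpd 5 min, chymotrypsin 25 µM 5 min, then Suc-AAPF-AMC 5 µM in LiCl/TFE. Kinetic fluorescence 330 s. Per-well rate constants, normalized, IC50 from nonlinear fit.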
# CypA = biological target: T2, CypA (Homo sapiens, UniProt P62937); settings: for CypA prolyl-isomerase assay raw dose-response value: Fig. 3b source data, replicates
# T2 construct: PPIA (UniProtKB Entry P62937: residues 1–165); made in house; host or cells: E. coli BL21(DE3)
# In short: as §1
# CypH = biological target: T3, CypH (Homo sapiens, UniProt O43447); settings: for CypH prolyl-isomerase assay raw dose-response value: Fig. 3b source data, replicates
# T3 construct: PPIH (UniProtKB Entry O43447: residues 1–177); His6 with TEV site (2BT vector leader) (N); made in house; host or cells: E. coli BL21(DE3)
# In short: as §1
# CypG = biological target: T4, CypG (Homo sapiens, UniProt Q13427); settings: for CypG prolyl-isomerase assay raw dose-response value: Fig. 3b source data, replicates
# T4 construct: PPIG (UniProtKB Entry Q13427: residues 1–179); His6 with thrombin site (pET28a LIC leader) (N); host or cells: E. coli BL21(DE3)
# T4 sequence (Q13427 1-179): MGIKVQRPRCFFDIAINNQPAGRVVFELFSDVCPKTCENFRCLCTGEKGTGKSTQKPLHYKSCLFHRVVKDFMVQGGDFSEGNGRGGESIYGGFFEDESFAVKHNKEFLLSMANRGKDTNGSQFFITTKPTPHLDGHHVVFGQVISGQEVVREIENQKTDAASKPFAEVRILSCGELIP
# In short: as §1
# T2 sequence (P62937 whole entry, the tested form may be a part): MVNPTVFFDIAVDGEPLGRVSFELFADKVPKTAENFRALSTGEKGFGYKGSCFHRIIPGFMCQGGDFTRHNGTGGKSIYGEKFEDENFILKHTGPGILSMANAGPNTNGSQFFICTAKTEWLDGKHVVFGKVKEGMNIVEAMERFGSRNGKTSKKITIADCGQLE
# T3 sequence (O43447 whole entry, the tested form may be a part): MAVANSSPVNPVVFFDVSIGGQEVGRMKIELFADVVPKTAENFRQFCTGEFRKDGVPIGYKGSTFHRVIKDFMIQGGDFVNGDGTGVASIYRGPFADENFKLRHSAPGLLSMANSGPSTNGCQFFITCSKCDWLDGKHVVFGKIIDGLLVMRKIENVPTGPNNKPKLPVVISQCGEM
# T1 sequence (Q9UNP9 131-301): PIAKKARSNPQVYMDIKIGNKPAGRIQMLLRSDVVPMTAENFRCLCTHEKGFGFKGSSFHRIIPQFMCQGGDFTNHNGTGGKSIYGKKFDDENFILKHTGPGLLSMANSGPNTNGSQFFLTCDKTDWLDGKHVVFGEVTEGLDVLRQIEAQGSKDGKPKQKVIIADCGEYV
smiles,measurement,setting,value
NCCOCCNC(=O)[C@@H]1CCNC(=O)/C=C/C(=O)N2CCC[C@](Cc3ccccc3)(C2)C(=O)N[C@@H](Cc2ccc(-c3ccc(C#CC(=O)O)cc3)cc2)C(=O)NCc2ccccc2CC(=O)N1 [Compound B25],CypE prolyl-isomerase assay raw dose-response value,CypE; Dose 0.00137174 µM,0.1073 and 0.09145 and 0.116
same,CypE prolyl-isomerase assay raw dose-response value,CypE; Dose 0.00411523 µM,0.07586 and 0.07841
same,CypE prolyl-isomerase assay raw dose-response value,CypE; Dose 0.0123457 µM,0.04723 and 0.04807 and 0.05181
same,CypE prolyl-isomerase assay raw dose-response value,CypE; Dose 0.037037 µM,0.02767 and 0.0265 and 0.02701
same,CypE prolyl-isomerase assay raw dose-response value,CypE; Dose 0.111111 µM,0.01749 and 0.01613 and 0.01666
same,CypE prolyl-isomerase assay raw dose-response value,CypE; Dose 0.333333 µM,0.01375 and 0.01292 and 0.01229
same,CypE prolyl-isomerase assay raw dose-response value,CypE; Dose 1 µM,0.01434 and 0.0116 and 0.01112
same,IC50,"CypE; wild-type CypE, read-out: Wild-Type Cyclophilin Prolyl Isomerase Inhibition IC50 Values, CypE",0.009 µM
same,IC50,"CypA; CypA column within the mutant section (comparator for CypA E81S/K82R), read-out: Mutant Cyclophilin Prolyl Isomerase Inhibition IC50 Values, CypA",0.037 µM
same,CypA prolyl-isomerase assay raw dose-response value,CypA; Dose 0.00457247 µM,0.1146 and 0.097 and 0.1434
same,CypA prolyl-isomerase assay raw dose-response value,CypA; Dose 0.0137174 µM,0.07936 and 0.08714 and 0.118
same,CypA prolyl-isomerase assay raw dose-response value,CypA; Dose 0.0411523 µM,0.05569 and 0.06344 and 0.07261
same,CypA prolyl-isomerase assay raw dose-response value,CypA; Dose 0.123457 µM,0.03132 and 0.03338 and 0.03777
same,CypA prolyl-isomerase assay raw dose-response value,CypA; Dose 0.37037 µM,0.02003 and 0.0199 and 0.02096
same,CypA prolyl-isomerase assay raw dose-response value,CypA; Dose 1.11111 µM,0.015 and 0.01431 and 0.01411
same,CypA prolyl-isomerase assay raw dose-response value,CypA; Dose 3.33333 µM,0.01402 and 0.01221 and 0.01255
same,CypA prolyl-isomerase assay raw dose-response value,CypA; Dose 10 µM,0.01563 and 0.01147 and 0.01176
same,IC50,"CypA; prolyl-isomerase inhibition, 5 nM cyclophilin, read-out: IC50 CypA",0.037 ± 0.007 µM
same,IC50,"CypA; wild-type CypA, read-out: Wild-Type Cyclophilin Prolyl Isomerase Inhibition IC50 Values, CypA",0.037 µM
same,CypH prolyl-isomerase assay raw dose-response value,CypH; Dose 0.0228624 µM,0.04387 and 0.03667 and 0.04369
same,CypH prolyl-isomerase assay raw dose-response value,CypH; Dose 0.0685871 µM,0.04493 and 0.03523 and 0.04571
same,CypH prolyl-isomerase assay raw dose-response value,CypH; Dose 0.205761 µM,0.04732 and 0.03749
same,CypH prolyl-isomerase assay raw dose-response value,CypH; Dose 0.617284 µM,0.04296 and 0.03867 and 0.04263
same,CypH prolyl-isomerase assay raw dose-response value,CypH; Dose 1.85185 µM,0.0451 and 0.03462 and 0.04053
same,CypH prolyl-isomerase assay raw dose-response value,CypH; Dose 5.55556 µM,0.04418 and 0.03887 and 0.03972
same,CypH prolyl-isomerase assay raw dose-response value,CypH; Dose 16.6667 µM,0.03817 and 0.03665 and 0.03617
same,CypH prolyl-isomerase assay raw dose-response value,CypH; Dose 50 µM,0.02975 and 0.02514 and 0.02678
same,IC50,"CypH; prolyl-isomerase inhibition, 5 nM cyclophilin, read-out: IC50 CypH",~50 µM
same,IC50,"CypH; wild-type CypH, read-out: Wild-Type Cyclophilin Prolyl Isomerase Inhibition IC50 Values, CypH",50 µM
same,CypG prolyl-isomerase assay raw dose-response value,CypG; Dose 0.0228624 µM,0.06249 and 0.05548 and 0.0638
same,CypG prolyl-isomerase assay raw dose-response value,CypG; Dose 0.0685871 µM,0.05565 and 0.04551* and 0.05901
same,CypG prolyl-isomerase assay raw dose-response value,CypG; Dose 0.205761 µM,0.04568 and 0.0619
same,CypG prolyl-isomerase assay raw dose-response value,CypG; Dose 0.617284 µM,0.03977 and 0.04815 and 0.06466
same,CypG prolyl-isomerase assay raw dose-response value,CypG; Dose 1.85185 µM,0.05698 and 0.05304 and 0.05804
same,CypG prolyl-isomerase assay raw dose-response value,CypG; Dose 5.55556 µM,0.0448 and 0.05687 and 0.05139
same,CypG prolyl-isomerase assay raw dose-response value,CypG; Dose 16.6667 µM,0.04193 and 0.04196 and 0.0448
same,CypG prolyl-isomerase assay raw dose-response value,CypG; Dose 50 µM,0.03044 and 0.02213 and 0.02754
same,IC50,"CypG; prolyl-isomerase inhibition, 5 nM cyclophilin, read-out: IC50 CypG",~25 µM
same,IC50,"CypG; wild-type CypG, read-out: Wild-Type Cyclophilin Prolyl Isomerase Inhibition IC50 Values, CypG",25 µM
